Experimental data as given in ChEMBL document CHEMBL1201862, “PubChem BioAssay data set” (2004).
One block for each compound: values may come before it. Calls of active or inactive are those of the source. For most assays here, no stated cut-off is given here; in the data, actives have a measured IC50 and inactives only a lower limit.

What was measured:
[1] = target: Hexokinase-1 (Homo sapiens, UniProt P19367); assay: hexokinase 1 activators, dose response, selectivity assay for HKDC1 activator project, biochemical (AID 504762); assay type: functional
Hexokinase-1, sequence (P19367 whole entry): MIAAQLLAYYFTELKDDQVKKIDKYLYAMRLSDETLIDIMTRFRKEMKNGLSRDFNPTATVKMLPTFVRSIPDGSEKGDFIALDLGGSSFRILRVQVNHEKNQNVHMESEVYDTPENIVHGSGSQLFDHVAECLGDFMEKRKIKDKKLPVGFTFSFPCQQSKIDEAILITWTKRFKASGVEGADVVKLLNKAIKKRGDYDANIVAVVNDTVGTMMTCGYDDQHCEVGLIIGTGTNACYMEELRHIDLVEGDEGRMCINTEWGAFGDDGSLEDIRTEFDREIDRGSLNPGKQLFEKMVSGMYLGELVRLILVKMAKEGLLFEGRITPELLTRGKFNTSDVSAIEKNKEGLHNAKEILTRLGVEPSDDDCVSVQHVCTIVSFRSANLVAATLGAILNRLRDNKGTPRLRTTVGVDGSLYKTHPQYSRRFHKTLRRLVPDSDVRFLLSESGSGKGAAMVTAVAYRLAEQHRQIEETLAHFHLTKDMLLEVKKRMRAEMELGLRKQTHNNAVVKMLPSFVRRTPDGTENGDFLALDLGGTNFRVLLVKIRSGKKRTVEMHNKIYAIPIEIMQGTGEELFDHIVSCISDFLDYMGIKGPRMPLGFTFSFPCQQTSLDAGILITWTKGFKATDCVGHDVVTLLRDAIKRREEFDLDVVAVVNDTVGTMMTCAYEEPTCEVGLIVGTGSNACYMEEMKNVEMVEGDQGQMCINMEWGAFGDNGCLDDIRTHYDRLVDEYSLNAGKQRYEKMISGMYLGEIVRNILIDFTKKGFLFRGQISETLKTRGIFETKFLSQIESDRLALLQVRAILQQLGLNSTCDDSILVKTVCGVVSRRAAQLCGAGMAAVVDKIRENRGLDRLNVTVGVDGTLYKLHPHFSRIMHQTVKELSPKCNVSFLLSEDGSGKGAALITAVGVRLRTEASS

[2] = target: T1, Rac GTPase-activating protein 1 (Homo sapiens, UniProt Q9H0H5); assay: MgcRacGAP GTPase-activating activity inhibitors, confirmation, biochemical, ADP Hunter fluorescence, primary and confirmatory (AID 624330); assay type: functional
T1 sequence (Q9H0H5 whole entry): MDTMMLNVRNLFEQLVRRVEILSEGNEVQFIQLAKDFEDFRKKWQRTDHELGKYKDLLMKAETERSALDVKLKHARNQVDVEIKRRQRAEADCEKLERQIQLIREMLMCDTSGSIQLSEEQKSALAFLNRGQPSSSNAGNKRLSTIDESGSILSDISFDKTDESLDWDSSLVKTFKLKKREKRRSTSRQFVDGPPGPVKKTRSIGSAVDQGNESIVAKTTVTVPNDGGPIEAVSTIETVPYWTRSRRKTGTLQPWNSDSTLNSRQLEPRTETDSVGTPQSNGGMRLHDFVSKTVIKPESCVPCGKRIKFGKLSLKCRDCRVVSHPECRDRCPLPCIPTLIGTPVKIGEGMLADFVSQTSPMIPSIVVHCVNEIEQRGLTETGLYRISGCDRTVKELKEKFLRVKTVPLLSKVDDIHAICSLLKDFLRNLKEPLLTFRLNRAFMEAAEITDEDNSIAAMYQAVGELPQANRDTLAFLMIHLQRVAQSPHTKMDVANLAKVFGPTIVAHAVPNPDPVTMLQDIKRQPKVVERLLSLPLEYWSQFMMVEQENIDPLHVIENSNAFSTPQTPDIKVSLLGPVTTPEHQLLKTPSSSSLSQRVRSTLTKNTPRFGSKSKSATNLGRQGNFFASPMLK

[3] = target: Hexokinase HKDC1 (Homo sapiens, UniProt Q2TB90); assay: HKDC1 hexokinase inhibitors, dose response, biochemical, W721R variant (AID 504729); assay type: functional
[4] = system: T-cell; assay: inhibitors of CD8+ T cell–vesicle binding, dose response, mouse 2C CD8+ T cells, flow cytometry (AID 485284); assay type: functional
[5] = target: Glyceraldehyde-3-phosphate dehydrogenase (Homo sapiens, UniProt P04406)
Glyceraldehyde-3-phosphate dehydrogenase, sequence (P04406 whole entry): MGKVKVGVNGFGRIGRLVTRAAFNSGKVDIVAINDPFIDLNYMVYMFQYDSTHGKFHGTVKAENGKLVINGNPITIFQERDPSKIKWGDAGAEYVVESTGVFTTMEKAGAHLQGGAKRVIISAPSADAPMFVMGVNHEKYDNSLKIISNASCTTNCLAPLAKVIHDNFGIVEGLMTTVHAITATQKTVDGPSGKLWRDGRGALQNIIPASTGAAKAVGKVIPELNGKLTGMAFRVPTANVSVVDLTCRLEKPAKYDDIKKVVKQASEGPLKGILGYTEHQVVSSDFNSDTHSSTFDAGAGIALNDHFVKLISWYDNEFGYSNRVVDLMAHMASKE

[6] = target: Alkaline phosphatase, placental type (Homo sapiens, UniProt P05187); assay: PLAP enzyme inhibitors, confirmation, biochemical, luminescence (AID 1512); assay type: functional
[7] = target: Voltage-dependent T-type calcium channel subunit alpha-1H (Homo sapiens, UniProt O95180); assay: Cav3.2 T-type channel inhibitors, cell-based, synthetic library set 1, calcium flux (AID 493022); assay type: functional
Voltage-dependent T-type calcium channel subunit alpha-1H, sequence (O95180 whole entry): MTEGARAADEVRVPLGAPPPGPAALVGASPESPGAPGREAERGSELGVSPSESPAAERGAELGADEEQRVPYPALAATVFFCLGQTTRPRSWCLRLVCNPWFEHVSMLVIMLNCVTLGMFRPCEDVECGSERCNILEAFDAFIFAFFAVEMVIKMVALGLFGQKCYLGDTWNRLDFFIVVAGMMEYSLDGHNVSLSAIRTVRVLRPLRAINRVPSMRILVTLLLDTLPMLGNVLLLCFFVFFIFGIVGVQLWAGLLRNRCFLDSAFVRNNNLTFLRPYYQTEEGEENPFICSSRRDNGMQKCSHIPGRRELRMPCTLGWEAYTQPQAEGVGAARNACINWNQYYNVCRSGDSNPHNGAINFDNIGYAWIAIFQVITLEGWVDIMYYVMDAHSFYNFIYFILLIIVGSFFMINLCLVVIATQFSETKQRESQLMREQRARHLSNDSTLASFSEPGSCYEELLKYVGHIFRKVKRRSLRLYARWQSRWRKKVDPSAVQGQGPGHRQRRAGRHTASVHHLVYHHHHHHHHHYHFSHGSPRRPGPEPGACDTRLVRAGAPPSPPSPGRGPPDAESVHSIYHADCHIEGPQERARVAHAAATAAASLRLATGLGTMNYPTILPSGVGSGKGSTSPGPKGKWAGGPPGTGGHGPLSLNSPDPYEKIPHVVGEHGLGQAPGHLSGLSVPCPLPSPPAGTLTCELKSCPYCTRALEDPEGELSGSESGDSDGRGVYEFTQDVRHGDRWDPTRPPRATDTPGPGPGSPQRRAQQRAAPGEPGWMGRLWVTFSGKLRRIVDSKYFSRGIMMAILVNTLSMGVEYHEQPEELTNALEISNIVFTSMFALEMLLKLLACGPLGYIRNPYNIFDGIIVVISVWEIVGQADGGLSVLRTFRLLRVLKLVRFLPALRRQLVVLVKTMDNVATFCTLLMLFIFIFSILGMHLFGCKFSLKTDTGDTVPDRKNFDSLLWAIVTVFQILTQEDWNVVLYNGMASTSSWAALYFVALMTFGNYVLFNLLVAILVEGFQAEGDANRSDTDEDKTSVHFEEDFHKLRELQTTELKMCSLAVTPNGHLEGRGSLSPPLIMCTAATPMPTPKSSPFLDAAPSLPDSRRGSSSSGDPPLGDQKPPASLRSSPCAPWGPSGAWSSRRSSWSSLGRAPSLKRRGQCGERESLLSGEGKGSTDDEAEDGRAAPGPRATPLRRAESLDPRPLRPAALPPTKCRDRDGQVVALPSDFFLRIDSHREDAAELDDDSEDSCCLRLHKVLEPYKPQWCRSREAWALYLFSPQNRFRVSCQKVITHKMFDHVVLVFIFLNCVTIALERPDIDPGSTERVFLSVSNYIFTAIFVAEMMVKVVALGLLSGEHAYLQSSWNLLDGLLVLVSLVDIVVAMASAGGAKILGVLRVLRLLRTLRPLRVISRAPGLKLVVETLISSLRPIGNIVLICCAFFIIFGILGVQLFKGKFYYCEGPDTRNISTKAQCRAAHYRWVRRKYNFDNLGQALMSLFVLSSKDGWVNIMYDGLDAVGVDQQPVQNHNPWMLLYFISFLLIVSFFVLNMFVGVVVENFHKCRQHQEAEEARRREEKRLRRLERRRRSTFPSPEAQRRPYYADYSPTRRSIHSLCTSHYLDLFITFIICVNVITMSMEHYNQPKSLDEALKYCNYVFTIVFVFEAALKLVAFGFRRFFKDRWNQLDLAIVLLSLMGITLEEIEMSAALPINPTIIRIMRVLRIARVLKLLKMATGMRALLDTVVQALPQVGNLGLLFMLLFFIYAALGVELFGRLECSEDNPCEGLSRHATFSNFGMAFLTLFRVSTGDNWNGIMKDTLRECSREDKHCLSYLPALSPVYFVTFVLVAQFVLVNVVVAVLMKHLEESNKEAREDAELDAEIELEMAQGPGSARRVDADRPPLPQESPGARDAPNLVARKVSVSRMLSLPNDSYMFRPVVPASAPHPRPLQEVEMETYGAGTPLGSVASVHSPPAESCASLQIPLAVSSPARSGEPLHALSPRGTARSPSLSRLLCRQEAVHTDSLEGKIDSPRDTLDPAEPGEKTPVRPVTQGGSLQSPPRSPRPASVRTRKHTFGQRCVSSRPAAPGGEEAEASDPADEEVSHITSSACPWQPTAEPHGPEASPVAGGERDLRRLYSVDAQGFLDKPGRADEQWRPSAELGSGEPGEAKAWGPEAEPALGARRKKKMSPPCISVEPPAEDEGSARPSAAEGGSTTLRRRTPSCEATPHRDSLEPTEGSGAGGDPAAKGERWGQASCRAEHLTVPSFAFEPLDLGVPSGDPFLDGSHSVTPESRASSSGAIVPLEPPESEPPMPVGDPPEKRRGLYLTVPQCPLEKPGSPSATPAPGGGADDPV

[8] = target: T2, Polyadenylate-binding protein 1 (Homo sapiens, UniProt P11940); assay: PABP inhibition in translation initiation, SAR follow-up (AID 435018); assay type: functional
T2 sequence (P11940 whole entry): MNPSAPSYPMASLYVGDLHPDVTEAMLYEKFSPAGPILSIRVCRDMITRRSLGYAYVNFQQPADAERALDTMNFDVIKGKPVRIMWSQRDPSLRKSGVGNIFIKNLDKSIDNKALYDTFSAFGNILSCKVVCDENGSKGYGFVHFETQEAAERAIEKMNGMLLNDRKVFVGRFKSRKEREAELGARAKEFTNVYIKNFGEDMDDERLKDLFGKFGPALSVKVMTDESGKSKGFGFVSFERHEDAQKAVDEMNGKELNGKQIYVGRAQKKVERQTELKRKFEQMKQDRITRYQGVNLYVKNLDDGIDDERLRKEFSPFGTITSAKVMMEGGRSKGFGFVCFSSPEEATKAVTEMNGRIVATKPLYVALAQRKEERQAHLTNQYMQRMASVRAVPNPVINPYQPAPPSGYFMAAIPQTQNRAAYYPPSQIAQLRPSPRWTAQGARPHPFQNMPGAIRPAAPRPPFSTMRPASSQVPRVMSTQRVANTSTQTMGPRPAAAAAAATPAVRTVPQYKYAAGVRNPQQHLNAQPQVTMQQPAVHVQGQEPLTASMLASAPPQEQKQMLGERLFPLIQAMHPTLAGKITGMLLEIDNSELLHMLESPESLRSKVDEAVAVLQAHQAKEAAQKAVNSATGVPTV

[9] = target: DNA dC->dU-editing enzyme APOBEC-3A (Homo sapiens, UniProt P31941); assay: Dose Response confirmation of small molecule APOBEC3A DNA Deaminase Inhibitors via a fluorescence-based single-stranded DNA deaminase assay. [Related pubchem assays (depositor defined):AID493011, AID493024]; assay type: functional
DNA dC->dU-editing enzyme APOBEC-3A, sequence (P31941 whole entry): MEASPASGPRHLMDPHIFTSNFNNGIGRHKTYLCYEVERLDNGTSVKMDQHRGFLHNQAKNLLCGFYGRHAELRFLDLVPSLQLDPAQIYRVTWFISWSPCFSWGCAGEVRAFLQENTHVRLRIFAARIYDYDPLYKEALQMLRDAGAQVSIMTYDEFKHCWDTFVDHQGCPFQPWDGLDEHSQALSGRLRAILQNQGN

[10] = target: T2, Polyadenylate-binding protein 1; assay: PABP poly(A) RNA binding inhibitors, primary screen, biochemical, fluorescence polarization, uHTS (AID 2014)
[11] = target: T3, Eukaryotic translation initiation factor 4H (Homo sapiens, UniProt Q15056); assay: eIF4H inhibition in translation initiation, SAR follow-up (AID 435011); assay type: functional
[12] = target: DNA dC->dU-editing enzyme APOBEC-3G (Homo sapiens, UniProt Q9HC16); assay type: functional;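 further: Dose-response counterscreen measuring inhibition of APOBEC3G DNA deaminase activity, run while confirming APOBEC3A inhibitors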
DNA dC->dU-editing enzyme APOBEC-3G, sequence (Q9HC16 whole entry): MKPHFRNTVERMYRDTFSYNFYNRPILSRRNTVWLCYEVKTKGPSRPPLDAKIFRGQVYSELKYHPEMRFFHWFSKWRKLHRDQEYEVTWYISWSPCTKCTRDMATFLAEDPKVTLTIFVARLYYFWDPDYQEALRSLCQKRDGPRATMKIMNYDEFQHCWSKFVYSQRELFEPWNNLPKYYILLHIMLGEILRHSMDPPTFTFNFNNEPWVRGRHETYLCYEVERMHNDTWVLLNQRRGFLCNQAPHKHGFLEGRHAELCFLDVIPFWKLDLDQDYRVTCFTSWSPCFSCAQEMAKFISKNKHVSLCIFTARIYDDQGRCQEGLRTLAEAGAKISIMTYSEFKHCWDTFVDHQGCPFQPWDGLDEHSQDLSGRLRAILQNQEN

[13] = target: T3, Eukaryotic translation initiation factor 4H; assay: human eIF4H binding inhibitors, primary screen, translation initiation inhibitor project, biochemical, uHTS, fluorescence polarization (AID 2012)

Structure (SMILES): COc1ccc(C2=CC(=O)CC(c3ccc(OC)cc3)C2)cc1 (stereo not drawn)
EC50 [4]: 4.09 µM (active)

Structure (SMILES): CN(C)C(=O)c1cc(-c2ccc(Cl)cc2Cl)n[nH]1
IC50 [5]: > 100 µM (not active)
IC50 [6]: > 100 µM (inactive)

Structure (SMILES): CCOC(=O)c1ccc2c(c1)N(CC)C(=O)c1ccccc1S2
IC50 [8]: 3.48 µM (active)
IC50 [9]: 2.24 µM (active)
IC50 [10]: 12.2 µM (active)
IC50 [11]: 20.7 µM (active)
IC50 [12]: 4.15 µM (active)
IC50 [13]: > 100 µM (inactive)

The next lines start with the values.

EC50 [1]: > 80 µM (inactive)
IC50 [2]: 160 µM (active)
IC50 [3]: > 80 µM (inactive)
Structure (SMILES): O=C(CNC(=O)c1ccc2c(c1)OCCO2)N/N=C/c1ccc(O)cc1O

EC50 [7]: 10 µM (active)
Structure (SMILES): O=C(COc1ccccc1F)Nc1nnc(-c2ccc3c(c2)OCCO3)o1
